Assay results from ChEMBL document CHEMBL4387776, “Discovery of novel 9H-purin derivatives as dual inhibitors of HDAC1 and CDK2” (Bioorg Med Chem Lett, 2019).

How the values were obtained:
[1] = tested on: A549; assay: Antiproliferative activity against human A549 cells measured after 72 hrs by CCK8 assay; type: functional, cell-based; details: A549, 72 h
[2] = tested on: CAL-148; assay: Antiproliferative activity against human CAL148 cells measured after 72 hrs by CCK8 assay; type: functional, cell-based; details: CAL-148, 72 h
[3] = molecular target: CDK2/Cyclin A2 (Homo sapiens, UniProt P24941); assay: Inhibition of wild-type human N-terminal GST-tagged CDK2/cycA2 expressed in Sf21 insect cells using FAM-labelled substrate preincubated for 10 mins followed by substrate addition and measured after 30 mins by fluorescence assay
[4] = tested on: HepG2; assay: Antiproliferative activity against human HepG2 cells measured after 72 hrs by CCK8 assay; type: functional, cell-based; details: HepG2, 72 h
[5] = molecular target: Histone deacetylase 1 (Homo sapiens, UniProt Q13547); assay: Inhibition of recombinant human full-length C-terminal FLAG-tagged HDAC1 expressed in baculovirus expression system using Ac-peptide-AMC as substrate preincubated for 15 mins followed by substrate addition by fluorescence assay
Histone deacetylase 1, sequence (Q13547 whole entry): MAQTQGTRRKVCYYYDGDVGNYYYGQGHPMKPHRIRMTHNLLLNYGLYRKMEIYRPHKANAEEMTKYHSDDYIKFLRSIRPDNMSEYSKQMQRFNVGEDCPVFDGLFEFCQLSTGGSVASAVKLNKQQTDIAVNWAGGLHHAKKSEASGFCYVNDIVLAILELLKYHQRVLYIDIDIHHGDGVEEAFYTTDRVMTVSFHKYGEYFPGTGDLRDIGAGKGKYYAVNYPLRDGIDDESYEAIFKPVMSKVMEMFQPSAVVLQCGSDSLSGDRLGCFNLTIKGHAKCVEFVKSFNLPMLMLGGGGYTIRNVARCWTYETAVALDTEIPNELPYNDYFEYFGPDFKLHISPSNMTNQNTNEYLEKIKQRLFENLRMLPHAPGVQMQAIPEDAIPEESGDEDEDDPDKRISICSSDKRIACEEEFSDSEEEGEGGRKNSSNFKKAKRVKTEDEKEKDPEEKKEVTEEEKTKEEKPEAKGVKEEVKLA

| IC50 [1] | IC50 [3] | IC50 [4] | IC50 [5] | SMILES | IC50 [2] |
| --- | --- | --- | --- | --- | --- |
| 1260 nM | 127 nM | 220 nM | 7 nM | CC(C)n1cnc2c(NCc3cccc(/C=C/C(=O)NO)c3)nc(N3CCOCC3)nc21 | 390 nM |
| 1490 nM | 56 nM | 770 nM | 5.8 nM | CCn1cnc2c(NCc3cccc(/C=C/C(=O)NO)c3)nc(N3CCOCC3)nc21 | 1140 nM |
| 20 nM |  | < 100 nM |  | Cc1[nH]c2ccccc2c1CCNCc1ccc(/C=C/C(=O)NO)cc1 [PANOBINOSTAT] | < 100 nM |

| SMILES | IC50 [1] | IC50 [3] | IC50 [4] | IC50 [5] | IC50 [2] |
| --- | --- | --- | --- | --- | --- |
| CC[C@H](CO)Nc1nc(NCc2ccccc2)c2ncn(C(C)C)c2n1 [SELICICLIB] | > 10000 nM |  | 15800 nM |  | > 10000 nM |
